Assay results taken from US11208404B2 (PERENNA PHARMACEUTICALS, INC., priority 2017, dated 2021).
Values joined by “and” are separate entries in the source; they are usually repeats but may differ in a detail not shown here. Equal values may be shown once.

Biological target: ALCAT1 (Homo sapiens (Human), UniProt Q6UWP7)
Assay: In vitro acyltransferase assay for ALCAT1 inhibitors
Assay type: biochemical
Conditions: for % inh @ 1 μM / inhibition at 1 µM: 1 μM compound; for IC50: ALCAT1 enzyme activity, triplicates, GraphPad, read-out: IC50
Excerpt: The human ALCAT1 protein were expressed in Spodoptera frugiperda (Sf9) insect cells by using a Bac-to-Bac baculovirus expression system (Invitrogen) according to the manufacturer's instruction. High-titer recombinant baculovirus expressing the human ALCAT1 protein was generated by several rounds of viral amplification. The Sf9 cells were typically infected with recombinant baculovirus for 3 days, harvested in ice-cold phosphate-buffered saline (PBS), and homogenized in 20 mm NaCl by going through French press. The total cell lysates were centrifuged at 10,000×g for 1 hours at 4° C. to eliminate the nucleus fraction, followed by ultracentrifugation at 100,000×g to pallet the membrane fraction. The membrane fraction was resuspended in enzymatic buffer that contain 10% glycerol, quantified for protein concentration, aliquoted, and stored at −80° C.
ALCAT1 enzymatic activity was determined by measuring the conversion of monolysocardiolipin (MLCL) to cardiolipin or lysophosphatidylglycerol (LPG) to phosphatidylglycerol (PG) in an enzymatic reaction mixture that contained 50 mm Tris/HCl, pH 7.0, 100 μm lysophospholipids, 25 μm [^14C]acyl-CoA (50 mCi/mmol, American Radiolabeled Chemicals, Inc), and membrane fraction (0.5-2.5 μg) in a total volume of 200 μl. The reaction was incubated at room temperature for 30 min. The lipids were extracted will chloroform, dried, and separated by thin layer chromatography (TLC) with chloroform:hexane:methanol:acetic acid (50:30:10:5, v/v) or chloroform:methanol:water (65:25:4, v/v). After separation, TLC plates were exposed to a Phosphorlmager screen to visualize the radiolabeled products with a Molecular Dynamics Typhoon Scanner (Sunnyvale, Calif.). In some experiments, NBD-CoA was used at 100 μM to replace the [^14C]acyl-CoA in the enzymatic reaction. All quantitative data were expressed as mean±S.E. Statistical analyses for differences between two groups were carried out using a Student's t test.
Compound inhibitors for ALCAT1 enzyme were analyzed by an in vitro enzymatic assay as detailed above. Compound inhibitors were added to the enzymatic mixture at 1-20 μM concentrations before the start of the acyltransferase reaction.
Where multiple measurements were taken this is indicated by a “/” between multiple values.
IC50 values for each compound were analyzed in triplicates, and calculated by GraphPad software.

[1] = 10 μM compound, in vitro enzymatic assay

ALCAT1, sequence (Q6UWP7 whole entry): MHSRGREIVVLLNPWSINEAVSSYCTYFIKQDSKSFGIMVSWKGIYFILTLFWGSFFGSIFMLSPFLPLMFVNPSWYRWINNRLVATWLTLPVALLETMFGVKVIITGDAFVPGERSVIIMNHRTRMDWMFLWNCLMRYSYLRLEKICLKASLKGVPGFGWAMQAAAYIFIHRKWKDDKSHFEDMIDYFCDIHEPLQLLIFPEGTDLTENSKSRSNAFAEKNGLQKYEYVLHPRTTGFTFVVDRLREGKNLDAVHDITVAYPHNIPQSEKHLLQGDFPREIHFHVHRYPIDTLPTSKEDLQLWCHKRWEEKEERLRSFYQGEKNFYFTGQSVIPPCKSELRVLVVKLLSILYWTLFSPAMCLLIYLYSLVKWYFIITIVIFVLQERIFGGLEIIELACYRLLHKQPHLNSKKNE

| SMILES | inhibition at 10 µM [1] | % inh @ 1 μM (in vitro enzymatic assay) | inhibition at 1 µM (in vitro enzymatic assay) | IC50 | % inh @ 10 μM [1] |
| --- | --- | --- | --- | --- | --- |
| O=C(Nc1cccc(-c2nnc(-c3ccc(Br)o3)o2)c1)c1ccccc1F [Compound 18] | 2% | – | – | – | – |
| O=C(Nc1cccc(-c2nnc(-c3ccco3)o2)c1)c1cccc(C(F)(F)F)c1 [Compound 234] | – | 42% | 46% | – | – |
| CC(C)Oc1ccc(Br)cc1C(=O)Nc1cccc(-c2nnc(-c3ccco3)o2)c1 [Compound 477] | 68% | – | 63% | – | – |
| O=C(Nc1cccc(-c2nnc(-c3ccco3)o2)c1)c1cc(Cl)ccc1OCC(F)(F)F [Compound 225, 5-Chloro-N-(3-(5-(furan-2-yl)-1,3,4-oxadiazol-2-yl)phenyl)-2-(2,2,2-trifluoroethoxy)benzamide] | – | 97% | 92% | 100 nM | – |
| O=C(Nc1cc(-c2ncc(-c3ccco3)o2)ccc1F)c1cccnc1F [Compound 288] | – | 59% | 48% | – | – |
| O=C(Nc1cccc(-c2nnc(-c3ccco3)o2)c1)c1cccc(OCc2ccccc2)c1 [Compound 71] | 93% | – | 51% | – | – |
| O=C(Nc1cc(-c2nnc(-c3cncs3)o2)ccc1F)c1ccccc1F [Compound 290, 2-fluoro-N-(2-fluoro-5-(5-(thiazol-5-yl)-1,3,4-oxadiazol-2-yl)phenyl)benzamide] | – | 31% | 24% | – | – |
| O=C(Nc1cccc(-c2nnc(-c3ccc[nH]3)o2)c1)c1ccccc1F [Compound 16] | – | 58% and 85% | – | – | – |
| O=C(Nc1cc(-c2nnc(-c3ccc(Cl)o3)o2)c(F)cc1F)c1ccccc1F [Compound 80] | – | – | 22% | – | – |
| O=C(Nc1cccc(-c2nnc(-c3ccco3)o2)c1)c1cncc([N+](=O)[O-])c1 [Compound 345] | – | – | 24% | – | – |
| O=C(Nc1cccc(-c2nnc(C3CCCO3)o2)c1)c1ccccc1F (stereo not drawn) [Compound 22, 2-fluoro-N-(3-(5-(tetrahydrofuran-2-yl)-1,3,4-oxadiazol-2-yl)phenyl)benzamide] | 8% | – | 20% | – | – |
| O=C(Nc1cccc(-c2nnc(-c3ccco3)o2)c1)c1ccc(-c2ccccc2)cc1F [Compound 74] | 21% | – | 4% | – | – |
| O=C(Nc1cccc(-c2nnc(-c3ccco3)o2)c1)c1ccc2occc2c1 [Compound 212] | – | – | 26% | – | – |
| O=C(Nc1cccc(-c2nnc(-c3ccco3)o2)n1)c1ccccc1F [Compound 53] | 90% | – | 47% | – | – |
| O=C(Nc1cccc(-c2nnc(-c3ccco3)o2)c1)c1ccc(-c2ccccc2)cc1 [Compound 48] | – | – | – | – | 2% |
| COc1cc(NC(=O)c2ccccc2F)cc(-c2nnc(-c3ccco3)o2)c1 [Compound 133] | – | 17% | 19% | – | – |
| Cc1ccc(F)c(NC(=O)c2cccc(-c3nnc(-c4ccco4)o3)c2)c1 [Compound 271] | – | 84% | 83% | 780 nM | – |
| COc1ccc(Cl)cc1NC(=O)c1cccc(-c2nnc(-c3ccco3)o2)c1 [Compound 230] | – | 89% | 94% | 410 nM | – |
| O=C(Nc1cncc(-c2nnc(-c3ccco3)o2)c1)c1ccccc1F [Compound 51] | – | 57% | 43% | – | – |
| O=C(Nc1cccc(-c2nnc(-c3cncs3)o2)c1)c1ccccc1F [Compound 292] | – | 12% | 14% | – | – |
| O=C(Nc1cccc(-c2nnc(-c3ccco3)o2)c1)c1ccc(C(F)F)cc1 [Compound 10] | 2% | – | – | – | – |
| COc1ccc(Cl)cc1NC(=O)c1cc(-c2nnc(-c3ccco3)o2)ccc1F [Compound 480, N-(5-chloro-2-methoxyphenyl)-2-fluoro-5-(5-(furan-2-yl)-1,3,4-oxadiazol-2-yl)benzamide] | – | – | 96% | – | – |
| O=C(Nc1cc(-c2nnc(-c3ccco3)o2)ccc1F)c1ccc2c(c1)COC2 [Compound 331] | – | – | 12% | – | – |
| O=C(Nc1cc(-c2nnc(-c3ccco3)o2)ccn1)c1ccccc1F [Compound 39, 2-Fluoro-N-(4-(5-(furan-2-yl)-1,3,4-oxadiazol-2-yl)pyridin-2-yl)benzamide] | – | – | 92% | 93 nM | – |

Continued, values first:

| inhibition at 10 µM [1] | % inh @ 1 μM (in vitro enzymatic assay) | inhibition at 1 µM (in vitro enzymatic assay) | IC50 | % inh @ 10 μM [1] | SMILES |
| --- | --- | --- | --- | --- | --- |
| – | – | 66% | – | – | O=C(Nc1cccc(-c2nnc(-c3ccco3)o2)c1)c1cc([N+](=O)[O-])ccc1F [Compound 336] |
| 43% | – | 36% | – | – | O=C(Nc1cccc(-c2nnc(-c3ccco3)o2)c1)c1ccccc1I [Compound 83] |
| 100% | – | 90% | 150 nM | – | CCCOc1ccccc1C(=O)Nc1cccc(-c2nnc(-c3ccco3)o2)c1 [Compound 175] |
| – | 6% | 12% | – | – | CCc1ccccc1C(=O)Nc1cccc(-c2nnc(-c3ccco3)o2)c1 [Compound 240] |
| 100% | – | 92% | 62 nM | – | COc1ccc(Cl)cc1C(=O)Nc1cccc(-c2nnc(-c3ccco3)o2)c1 [Compound 124, 5-Chloro-N-(3-(5-(furan-2-yl)-1,3,4-oxadiazol-2-yl)phenyl)-2-methoxybenzamide] |
| – | – | 5% | – | – | O=C(Nc1cccc(-c2nnc(-c3ccco3)o2)c1)c1ccc(I)cc1 [Compound 84] |
| 39% | – | – | 4100 nM | – | O=C(Nc1cccc(-c2nnc(-c3ccco3)o2)c1)c1ccccc1Br [Compound 5] |
| 26% | – | 6% | – | – | CC(=O)Nc1ccccc1C(=O)Nc1cccc(-c2nnc(-c3ccco3)o2)c1 [Compound 172] |
| 68% | – | 34% | – | – | CSc1ccccc1C(=O)Nc1cccc(-c2nnc(-c3ccco3)o2)c1 [Compound 181] |
| 93% | – | 74% | 470 nM | – | COc1cccc(C(=O)Nc2cccc(-c3nnc(-c4ccco4)o3)c2)c1OC [Compound 169] |
| – | 46% | 35% | – | – | O=C(Nc1cccc(-c2nnc(-c3ccco3)o2)c1)c1ccncc1 [Compound 237] |
| 100% | – | 92% | 390 nM | – | O=C(Nc1cccc(-c2nnc(-c3ccco3)o2)c1)c1cccc(Cl)c1F [Compound 186] |
| – | 100% | 94% | 120 nM | – | CCc1ccc(OC)c(C(=O)Nc2cccc(-c3nnc(-c4ccco4)o3)c2)c1 [Compound 280] |
| – | 89% | 85% | 160 nM | – | O=C(Nc1cccc(-c2nnc(-c3ccco3)o2)c1)c1cccc2ccoc12 [Compound 227] |
| – | – | – | 2000 nM | – | O=C(Nc1cccc(-c2nnc(-c3ccco3)o2)c1)c1cccc(Cl)c1 [Compound 59] |
| – | – | 12% | – | – | O=C(Nc1cccc(-c2nnc(-c3ccco3)o2)c1)c1cccnc1 [Compound 235] |
| 92% | – | 72% | 410 nM | – | O=C(Nc1cccc(-c2nnc(-c3ccco3)o2)c1)c1cccc(Cl)c1Cl [Compound 150] |
| – | 23/23% | 23% | – | – | CC(C)c1cccc(C(=O)Nc2cccc(-c3nnc(-c4ccco4)o3)c2)c1 [Compound 277] |
| 66% | – | 15% | – | – | O=C(Nc1cccc(-c2nnc(-c3ccco3)o2)c1)c1ccc(Br)cc1F [Compound 73] |
| – | 61/61% | 61% | – | – | O=C(Nc1cccc(-c2nnc(-c3ccco3)o2)c1)c1ccccc1OC(F)(F)F [Compound 232] |
| 100% | – | 85% | 210 nM | – | COc1ccc(F)cc1C(=O)Nc1cccc(-c2nnc(-c3ccco3)o2)c1 [Compound 127] |
| – | 93% | 89% | 92 nM | – | COc1c(Br)cccc1C(=O)Nc1cccc(-c2nnc(-c3ccco3)o2)c1 [Compound 192, 3-Bromo-N-(3-(5-(furan-2-yl)-1,3,4-oxadiazol-2-yl)phenyl)-2-methoxybenzamide] |
| 55% | – | 15% | – | – | O=C(Nc1cccc(-c2nnc(-c3ccco3)o2)c1)c1ccccc1O [Compound 64] |
| 100% | – | 73% | 220 nM | – | Cc1ccc(F)c(C(=O)Nc2cccc(-c3nnc(-c4ccco4)o3)c2)c1 [Compound 176] |
| 90% | – | 92% | 67 nM | – | COc1c(Cl)cccc1C(=O)Nc1cccc(-c2nnc(-c3ccco3)o2)c1 [Compound 193, 3-Chloro-N-(3-(5-(furan-2-yl)-1,3,4-oxadiazol-2-yl)phenyl)-2-methoxybenzamide] |
